Biological target: PASK (Homo sapiens (Human), UniProt Q96RG2)
Experiment: PAS Kinase FRET Assay
Format: biochemical
Conditions: TR-FRET, Ulight-peptide substrate; read-out: IC50 Kinase Domain
From the text: PAS Kinase FRET Assay The aim of the FRET assay is to determine the inhibition potential of test compounds on targeted kinase. This assay platform provides a homogenous screening method for measuring kinase activity by quantitating the amount of phospho-substrate in solution following a kinase reaction. In the presence of kinase and ATP, the Ulight-peptide is phosphorylated and captured by an anti-phospho-substrate antibody, which brings the Eu chelate donor and Ulight acceptor dyes into close proximity. […] The contents of the plate were and incubated at RT for 1 h. The reaction was stopped by adding 5 μl of stop solution to each test well followed by mixing and incubation at RT for 10 minutes. 5 μl of detection mix (detection antibody diluted in detection buffer) was added; the contents of the plate were mixed and then incubated in the dark for 1 hour at RT. […] The results were graphed to calculate the EC50. Titration of ATP at the EC50 concentration of kinase to determine ATP Km,app. was performed using the following method. […] The contents of the plate were and incubated at RT for 1 h. The reaction was stopped by adding 5 μl of stop solution to each test well followed by mixing and incubation at RT for 10 minutes. 5 μl of detection mix (detection antibody diluted in detection buffer) was added; the contents of the plate were mixed and then incubated in the dark for 1 hour at RT. […] The results were graphed to calculate the EC50 as the ATP Km,app. […] If compound is not soluble under this condition, it was diluted to 3 mM. Kinase reaction buffer was prepared containing 10 mM MgCl2, 50 mM HEPES, 1 mM EGTA, 0.01% TWEEN-20, 2 mM DTT. […] As a positive control, 2.5 μl of positive compound was added to assay wells, and 2.5 μl of DMSO to assay wells as vehicle control. Kinase solution was prepared in reaction buffer at 2× final assay concentration. Kinase solution (5 μl) was added to each well of the assay plate. The substrate and ATP solution was prepared in kinase reaction buffer at 4× final assay concentration. The kinase reaction was started by adding 2.5 μl of substrate+ATP mix solution to each well of the assay plate. The plate is mixed on a plate shaker; then covered and allowed to react for 2 hours in the dark at 25° C. without shaking. The reaction was stopped by adding 5 μl of stop solution to each test well followed by mixing and incubation at RT for 10 minutes in the dark. 5 μl of detection mix (detection antibody diluted in detection buffer) was added; the contents of the plate were mixed and then incubated in the dark for 1 hour at RT.

Chain of PASK (Q96RG2 999-1251): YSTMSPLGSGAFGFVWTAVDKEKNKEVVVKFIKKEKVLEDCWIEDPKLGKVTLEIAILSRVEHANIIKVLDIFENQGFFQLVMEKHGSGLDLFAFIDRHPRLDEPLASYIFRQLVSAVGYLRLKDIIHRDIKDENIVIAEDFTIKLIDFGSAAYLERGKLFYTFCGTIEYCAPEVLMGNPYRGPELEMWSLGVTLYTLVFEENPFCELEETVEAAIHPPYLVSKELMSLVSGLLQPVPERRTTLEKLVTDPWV

`CS(=O)(=O)N1CCN(c2nc3cc(C(=O)O)ccc3nc2-c2ccccc2)CC1` [Example 33, 3-(4-(Methylsulfonyl)piperazin-1-yl)-2-phenylquinoxaline-6-carboxylic acid] and `O=C(O)c1ccc2nc(-c3ccccc3)c(N3CCS(=O)(=O)CC3)nc2c1` [Example 102, 3-(1,1-Dioxidothiomorpholino)-2-phenylquinoxaline-6-carboxylic acid] cannot be ordered by IC50: at most 10 µM for the first, at least 10 µM for the second.

`CC(=O)N(C)C1CCN(c2nc3cc(C(=O)O)ccc3nc2-c2ccccc2)CC1` [Example 34, 3-(4-(N-Methylacetamido)piperidin-1-yl)-2-phenylquinoxaline-6-carboxylic acid] and `CC(=O)NC1CCN(c2nc3cc(C(=O)O)ccc3nc2-c2ccccc2)CC1` [Example 37, 3-(4-Acetamidopiperidin-1-yl)-2-phenylquinoxaline-6-carboxylic acid] cannot be ordered by IC50: at most 10 µM for the first, at most 10 µM for the second.

`CN(c1ccccc1)C1CCN(c2nc3cc(C(=O)O)ccc3nc2-c2ccccc2)CC1` [Example 35, 3-(4-(Methyl(phenyl)amino)piperidin-1-yl)-2-phenylquinoxaline-6-carboxylic acid] and `O=C(O)c1ccc2nc(-c3ccccc3)c(N3CCc4ccccc4C3)nc2c1` [Example 39, 3-(3,4-Dihydroisoquinolin-2(1H)-yl)-2-phenylquinoxaline-6-carboxylic acid] cannot be ordered by IC50: at most 10 µM for the first, at most 10 µM for the second.

`CCN(CC)c1nc2cc(C(=O)O)ccc2nc1-c1ccccc1` [Example 36, 3-(Diethylamino)-2-phenylquinoxaline-6-carboxylic acid] and `CCC(C)N(C)c1nc2cc(C(=O)O)ccc2nc1-c1ccccc1` (stereo not shown) [Example 48, 3-(sec-Butyl(methyl)amino)-2-phenylquinoxaline-6-carboxylic acid] cannot be ordered by IC50: at most 10 µM for the first, at most 10 µM for the second.

`O=C(O)c1ccc2nc(-c3ccccc3)c(NCCc3ccccc3)nc2c1` [Example 41, 3-(Phenethylamino)-2-phenylquinoxaline-6-carboxylic acid] and `CN(CCc1ccccc1)c1nc2cc(C(=O)O)ccc2nc1-c1ccccc1` [Example 42, 3-(Methyl(phenethyl)amino)-2-phenylquinoxaline-6-carboxylic acid] cannot be ordered by IC50: at most 10 µM for the first, at most 10 µM for the second.

`O=C(O)c1ccc2nc(-c3ccccc3)c(NC3CCCCC3)nc2c1` [Example 44, 3-(Cyclohexylamino)-2-phenylquinoxaline-6-carboxylic acid] and `O=C(O)c1ccc2nc(-c3ccccc3)c(N3CCCC4CCCCC43)nc2c1` (stereo not shown) [Example 96, 3-(Octahydroquinolin-1(2H)-yl)-2-phenylquinoxaline-6-carboxylic acid] cannot be ordered by IC50: at most 10 µM for the first, at most 10 µM for the second.

`O=C(O)c1ccc2nc(-c3ccccc3)c(N3CC[C@@H](O)C3)nc2c1` [Example 49, (R)-3-(3-Hydroxypyrrolidin-1-yl)-2-phenylquinoxaline-6-carboxylic acid] and `O=C(O)c1ccc2nc(-c3ccccc3)c(N3CC[C@H](O)C3)nc2c1` [Example 50, (S)-3-(3-Hydroxypyrrolidin-1-yl)-2-phenylquinoxaline-6-carboxylic acid] cannot be ordered by IC50: at most 10 µM for the first, at most 10 µM for the second.

`O=C(O)c1ccc2nc(-c3ccccc3)c(N3CCC[C@H]3CO)nc2c1` [Example 53, (S)-3-(2-(Hydroxymethyl)pyrrolidin-1-yl)-2-phenylquinoxaline-6-carboxylic acid] and `COC[C@H]1CCCN1c1nc2cc(C(=O)O)ccc2nc1-c1ccc(F)cc1` [Example 93, (R)-2-(4-Fluorophenyl)-3-(2-(methoxymethyl)pyrrolidin-1-yl)quinoxaline-6-carboxylic acid] cannot be ordered by IC50: at most 10 µM for the first, at most 10 µM for the second.

`C[C@H](c1ccccc1)N(C)c1nc2cc(C(=O)O)ccc2nc1-c1ccccc1` [Example 59, (R)-3-(Methyl(1-phenylethyl)amino)-2-phenylquinoxaline-6-carboxylic acid] and `C[C@@H](c1ccccc1)N(C)c1nc2cc(C(=O)O)ccc2nc1-c1ccccc1` [Example 60, (S)-3-(Methyl(1-phenylethyl)amino)-2-phenylquinoxaline-6-carboxylic acid] cannot be ordered by IC50: at most 10 µM for the first, at most 10 µM for the second.

`CC[C@@H](C)N(C)c1nc2cc(C(=O)O)ccc2nc1-c1ccccc1` [Example 61, (R)-3-(sec-Butyl(methyl)amino)-2-phenylquinoxaline-6-carboxylic acid] and `CC(C)N(C)c1nc2cc(C(=O)O)ccc2nc1-c1cccc(F)c1` [Example 70, 2-(3-Fluorophenyl)-3-(isopropyl(methyl)amino)quinoxaline-6-carboxylic acid] cannot be ordered by IC50: at most 10 µM for the first, at most 10 µM for the second.

`O=C(O)c1ccc2nc(-c3ccccc3)c(-n3ccc4ccccc43)nc2c1` [Example 62, 3-(1H-Indol-1-yl)-2-phenylquinoxaline-6-carboxylic acid] and `O=C(O)c1ccc2nc(-c3ccccc3)c(N3CCc4ccccc43)nc2c1` [Example 67, 3-(Indolin-1-yl)-2-phenylquinoxaline-6-carboxylic acid] cannot be ordered by IC50: at most 10 µM for the first, at most 10 µM for the second.

`O=C(O)c1ccc2nc(-c3ccccc3)c(N3CCOc4ccccc43)nc2c1` [Example 68, 3-(2,3-Dihydrobenzo[b][1,4]oxazin-4-yl)-2-phenylquinoxaline-6-carboxylic acid] and `C[C@H]1CN(c2ccccn2)CCN1c1nc2cc(C(=O)O)ccc2nc1-c1ccccc1` [Example 94, (S)-3-(2-Methyl-4-(pyridin-2-yl)piperazin-1-yl)-2-phenylquinoxaline-6-carboxylic acid] cannot be ordered by IC50: at most 10 µM for the first, at most 10 µM for the second.

`COc1cccc(-c2nc3ccc(C(=O)O)cc3nc2N(C)C(C)C)c1` [Example 69, 3-(Isopropyl(methyl)amino)-2-(3-methoxyphenyl)quinoxaline-6-carboxylic acid] and `CC(C)N(C)c1nc2cc(C(=O)O)ccc2nc1-c1cccnc1` [Example 97, 3-(Isopropyl(methyl)amino)-2-(pyridin-3-yl)quinoxaline-6-carboxylic acid] cannot be ordered by IC50: at most 10 µM for the first, at most 10 µM for the second.

`CC(C)N(C)c1nc2cc(C(=O)O)ccc2nc1-c1ccccc1F` [Example 71, 2-(2-Fluorophenyl)-3-(isopropyl(methyl)amino)quinoxaline-6-carboxylic acid] and `CC(C)N(C)c1nc2cc(C(=O)O)ccc2nc1-c1ccco1` [Example 98, 2-(Furan-2-yl)-3-(isopropyl(methyl)amino)quinoxaline-6-carboxylic acid] cannot be ordered by IC50: at most 10 µM for the first, at most 10 µM for the second.

`CC(C)N(C)c1nc2cc(C(=O)O)ccc2nc1-c1ccc(S(C)(=O)=O)cc1` [Example 82, 3-(Isopropyl(methyl)amino)-2-(4-(methylsulfonyl)phenyl)quinoxaline-6-carboxylic acid] and `CC(C)N(C)c1nc2cc(C(=O)O)ccc2nc1-c1ccc(C#N)cc1` [Example 86, 2-(4-Cyanophenyl)-3-(isopropyl(methyl)amino)quinoxaline-6-carboxylic acid] cannot be ordered by IC50: at least 10 µM for the first, at most 10 µM for the second.

`CC(C)N(C)c1nc2cc(C(=O)O)ccc2nc1-c1ccc(OC(F)(F)F)cc1` [Example 85, 3-(Isopropyl(methyl)amino)-2-(4-(trifluoromethoxy)phenyl)quinoxaline-6-carboxylic acid] and `CC(C)N(C)c1nc2cc(C(=O)O)ccc2nc1-c1ccc(N2CCOCC2)cc1` [Example 100, 3-(Isopropyl(methyl)amino)-2-(4-morpholinophenyl)quinoxaline-6-carboxylic acid] cannot be ordered by IC50: at most 10 µM for the first, at most 10 µM for the second.

`C[C@H]1CN(c2ccccn2)CCN1c1nc2cc(C(=O)O)ccc2nc1-c1ccc(F)cc1` [Example 90, (S)-2-(4-Fluorophenyl)-3-(2-methyl-4-(pyridin-2-yl)piperazin-1-yl)quinoxaline-6-carboxylic acid] and `C[C@H]1CCCCN1c1nc2cc(C(=O)O)ccc2nc1-c1ccc(F)cc1` [Example 91, (S)-2-(4-Fluorophenyl)-3-(2-methylpiperidin-1-yl)quinoxaline-6-carboxylic acid] cannot be ordered by IC50: at most 10 µM for the first, at most 10 µM for the second.

`CN(c1nc2cc(C(=O)O)ccc2nc1-c1ccc(F)cc1)C1CC1` [Example 92, 3-(Cyclopropyl(methyl)amino)-2-(4-fluorophenyl)quinoxaline-6-carboxylic acid] and `O=C(O)c1ccc2nc(-c3ccc(F)cc3)c(N3CCS(=O)(=O)CC3)nc2c1` [Example 101, 3-(1,1-Dioxidothiomorpholino)-2-(4-fluorophenyl)quinoxaline-6-carboxylic acid] cannot be ordered by IC50: at most 10 µM for the first, at least 10 µM for the second.

`CC(C)N(C)c1nc2cc(C(=O)O)ccc2nc1-c1cnc2ccccc2c1` [Example 99, 3-(Isopropyl(methyl)amino)-2-(quinolin-3-yl)quinoxaline-6-carboxylic acid] gave an IC50 of at most 10 µM.

— US10781185B2, “Heterocyclic compounds for the inhibition of PASK” (BioEnergenix LLC, priority 2009, dated 2020)
